Consider 46 molecules from ChEMBL document CHEMBL5579901, “Discovery of Novel [1,2,4]Triazolo[1,5-a]pyrimidine Derivatives as Novel Potent S-Phase Kinase-Associated Protein 2 (SKP2) Inhibitors for the Treatment of Cancer” (J Med Chem, 2024).

Assay [1] addresses T1, Cyclin-dependent kinases regulatory subunit 1/S-phase kinase-associated protein 2 (Homo sapiens) (UniProt P61024+Q13309). The assay can be described thus: Inhibition of GST-tagged SKP2 (unknown origin) binding to His6-tagged CKS1 (unknown origin) at 50 uM preincubated with SKP2 for 10 mins followed by CKS1 addition for 20 mins and measured after by HTRF method relative to control. Format: protein assay. Conditions: time 30.0 min.

Assay [2] concerns the target T2, Cyclin-dependent kinases regulatory subunit 1/S-phase kinase-associated protein 2 (Homo sapiens, UniProt Q13309). The assay can be described thus: Inhibition of GST-tagged SKP2 (unknown origin) binding to His6-tagged CKS1 (unknown origin) preincubated with SKP2 for 10 mins followed by CKS1 addition for 20 mins and measured after by HTRF method. Format: protein assay.

Another assay has as its system MGC-803. The assay can be described thus: Inhibition of cell proliferation in human MGC-803 cells incubated for 72 hrs by MTT assay. Format: functional, cell-based. Conditions: MGC-803, 72 h.
A further assay deals with PC-3. The assay can be described thus: Inhibition of cell proliferation in human PC-3 cells incubated for 72 hrs by MTT assay. Format: functional, cell-based. Conditions: PC-3, 72 h.
In assay [3] the target is T2, Cyclin-dependent kinases regulatory subunit 1/S-phase kinase-associated protein 2. The assay can be described thus: Inhibition of GST-tagged SKP2 (unknown origin) binding to His6-tagged CKS1 (unknown origin) incubated for 1 hr by AlphaScreen assay. Format: protein assay.
The next assay deals with A549. In words: Antiproliferative activity against human A549 cells incubated for 48 hrs by MTT assay. Format: functional, cell-based. Conditions: A549, 48 h.
The target of assay [4] is T1, Cyclin-dependent kinases regulatory subunit 1/S-phase kinase-associated protein 2 (Homo sapiens). In words: Inhibition of GST-tagged SKP2 (unknown origin) to His6-tagged CKS1 (unknown origin) protein protein interaction at 50 umol/L by HTRF method relative to control. Format: protein assay. The conditions noted are these: dose 50.0 µmol/L.

T1 sequence (P61024 2-79 limits assumed): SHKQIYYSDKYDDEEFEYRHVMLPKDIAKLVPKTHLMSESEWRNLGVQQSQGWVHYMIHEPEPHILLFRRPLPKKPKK
T1 sequence (Q13309 whole entry partner): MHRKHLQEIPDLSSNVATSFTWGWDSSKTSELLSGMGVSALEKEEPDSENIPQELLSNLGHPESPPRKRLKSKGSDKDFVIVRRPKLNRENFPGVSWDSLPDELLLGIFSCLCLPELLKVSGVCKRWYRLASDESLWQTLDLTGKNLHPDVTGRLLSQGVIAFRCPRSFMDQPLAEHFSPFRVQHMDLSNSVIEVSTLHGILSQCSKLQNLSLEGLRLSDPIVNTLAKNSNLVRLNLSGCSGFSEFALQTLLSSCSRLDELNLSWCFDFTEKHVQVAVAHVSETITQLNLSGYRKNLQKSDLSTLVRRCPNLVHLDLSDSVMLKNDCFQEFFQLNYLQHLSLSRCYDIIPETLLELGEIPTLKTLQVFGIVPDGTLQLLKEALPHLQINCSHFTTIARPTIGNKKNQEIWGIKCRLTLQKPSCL
T2 sequence (P61024 whole entry): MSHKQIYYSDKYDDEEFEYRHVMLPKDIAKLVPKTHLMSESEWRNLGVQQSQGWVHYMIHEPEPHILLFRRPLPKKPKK
T2 sequence (Q13309 whole entry): as the sequence (Q13309 whole entry partner) above

Take `CCSc1nc2nc(C)cc(-c3c(OC)cc(OC)cc3OC)n2n1`: the inhibition in assay [1] stood at 3.73%. In assay [2], this molecule registered an IC50 of more than 100 µM.

In assay [1], `Cc1cc(Cl)n2nc(SCc3ccc(Br)cc3)nc2n1` returned an inhibition of 22%. For the same molecule, in assay [2], the IC50 was found to be 75.1 µM.

For the molecule `COc1cc(OC)c(-c2cc(C)nc3nc(SCc4cnc(Cl)s4)nn23)c(OC)c1`, the inhibition in assay [1] is 31.5%. In assay [2], this molecule showed an IC50 of 72.5 µM.

As for `COc1cc(OC)c(-c2cc(C)nc3nc(SCC4CCCC4)nn23)c(OC)c1`, the inhibition in assay [1] amounted to 28%. In assay [2], the concentration for half-maximal inhibition (IC50) was found to be 62.3 µM.

Molecule `COc1cc(OC)c(-c2cc(C)nc3nc(SCc4ccc(C(F)(F)F)cc4)nn23)c(OC)c1` registered an inhibition in assay [1] of 27.1%. The IC50 in assay [2] worked out at 93.1 µM.

For `Cc1cc(-c2ccc(C(=O)N3CCN(C)CC3)cc2)n2nc(SCc3ccc(Br)cc3)nc2n1`, the inhibition in assay [1] amounted to 14.6%. The same molecule had a concentration for half-maximal inhibition (IC50) in assay [2] of more than 100 µM.

On to `O=c1[nH]cc(F)c(=O)[nH]1` [FLUOROURACIL], for which the IC50 in the assay on MGC-803 was found to be 44.1 µM; in the assay with PC-3, 10.2 µM.

Regarding `COc1cc(OC)c(-c2cc(C)nc3nc(SCc4ccc(Cl)cc4)nn23)c(OC)c1`, the inhibition in assay [1] was 9.13%. In assay [2], this molecule showed an IC50 of more than 100 µM.

`O=C(OCC12CC3CC(CC(C3)C1)C2)c1ccc(NCc2cc(O)ccc2O)cc1` displayed a half-maximal inhibitory concentration (IC50) in assay [3] of 36.6 µM.

Turning to `COc1cc(OC)c(-c2cc(C)nc3nc(SCc4cccc(Br)c4)nn23)c(OC)c1`, the inhibition in assay [1] was 42.5%. In assay [2], the half-maximal inhibitory concentration (IC50) came out at 61 µM.

Consider `COC(=O)c1cccc(Nc2cc(C)nc3nc(SCc4ccc(Br)cc4)nn23)c1`, for which, in assay [1], the inhibition worked out at 12.4%. Moreover, the IC50 in assay [2] was more than 100 µM.

In assay [1], `COc1cc(OC)c(-c2cc(C)nc3nc(SCc4ccc(I)cc4)nn23)c(OC)c1` displayed an inhibition of 41.7%.

`COc1cc(OC)c(-c2cc(C)nc3nc(SCc4ccc(F)cc4)nn23)c(OC)c1` had an inhibition in assay [1] of 24%. In assay [2], the 50% inhibitory concentration (IC50) turned out to be 98.1 µM.

In assay [1], `Cc1cc(-c2cccc(C(=O)O)c2)n2nc(SCc3ccc(Br)cc3)nc2n1` gave an inhibition of 17.9%. For the same molecule, the 50% inhibitory concentration (IC50) in assay [2] is more than 100 µM.

Molecule `COc1cc(OC)c(-c2cc(C)nc3nc(SCCCc4ccccc4)nn23)c(OC)c1` displayed an inhibition in assay [1] of 20.3%. In addition, in assay [2], the IC50 is more than 100 µM.

With `Cc1cc(-c2cccc(C(=O)N3CCN(C)CC3)c2)n2nc(SCc3ccc(Br)cc3)nc2n1`, in assay [1], the inhibition came out at 23.4%. In addition, in assay [2], the IC50 was more than 100 µM.

In turn, `COc1cc(OC)c(-c2cc(C)nc3nc(SCC4CCOCC4)nn23)c(OC)c1` showed an inhibition in assay [1] of 16.3%. The IC50 in assay [2] is more than 50 µM.

For `COC(=O)c1cccc(CSc2nc3nc(C)cc(-c4c(OC)cc(OC)cc4OC)n3n2)c1`, the inhibition in assay [1] was found to be 10.2%. The molecule also returned an IC50 in assay [2] of more than 100 µM.

Molecule `COc1cccc(OC)c1-c1cc(C)nc2nc(SCc3ccc(Br)cc3)nn12` gave an inhibition in assay [1] of 37%. The molecule also displayed a half-inhibitory concentration (IC50) in assay [2] of 75.6 µM.

With `COc1cc(-c2cc(C)nc3nc(SCc4ccc(Br)cc4)nn23)cc(OC)c1OC`, the inhibition in assay [1] is 58.8%. This molecule also showed a concentration for half-maximal inhibition (IC50) in assay [2] of 30.9 µM.

In assay [1], `COc1cc(OC)c(-c2cc(C)nc3nc(SCC4CCC4)nn23)c(OC)c1` gave an inhibition of 20.2%. Further, the IC50 in assay [2] came out at 82.5 µM.

Take `COc1cc(OC)c(-c2cc(C)nc3nc(SCc4ccccc4Br)nn23)c(OC)c1`: the inhibition in assay [1] was 43%. In assay [2], this molecule had an IC50 of 66.7 µM.

The molecule `COC(=O)c1ccc(Nc2cc(C)nc3nc(SCc4ccc(Br)cc4)nn23)cc1` gave an inhibition in assay [1] of 12.4%. In assay [2], this molecule returned an IC50 of more than 100 µM.

`COC(=O)c1ccc(CCc2cc(O)ccc2O)cc1` came in with a half-inhibitory concentration (IC50) in assay [3] of 36.6 µM.

In turn, `C=CCSc1nc2nc(C)cc(-c3c(OC)cc(OC)cc3OC)n2n1` had an inhibition in assay [1] of 2.51%. Moreover, the half-maximal inhibitory concentration (IC50) in assay [2] is more than 100 µM.

The molecule `COc1cc(OC)c(-c2cc(C)nc3nc(SCC4CCCCC4)nn23)c(OC)c1` yielded an inhibition in assay [1] of 60%. Besides, the half-inhibitory concentration (IC50) in assay [2] was 17.4 µM.

In assay [1], `COc1cc(OC)c(-c2cc(C)nc3nc(SCc4ccccc4)nn23)c(OC)c1` registered an inhibition of 60%. The half-inhibitory concentration (IC50) in assay [2] came to 14.7 µM.

On to `COc1cc(OC)c(-c2cc(C)nc3nc(SCc4cccc5ccccc45)nn23)c(OC)c1`, for which, in assay [1], the inhibition is 17.4%. For the same molecule, the IC50 in assay [2] is more than 100 µM.

Turning to `COc1ccc(CSc2nc3nc(C)cc(-c4c(OC)cc(OC)cc4OC)n3n2)cc1`, the inhibition in assay [1] amounted to 11.5%. The same molecule displayed a half-inhibitory concentration (IC50) in assay [2] of more than 100 µM.

Regarding `COc1cc(OC)c(-c2cc(C)nc3nc(SCc4ccncc4)nn23)c(OC)c1`, in assay [1], the inhibition was found to be 10%. Also, in assay [2], the IC50 was more than 100 µM.

In the case of `Cc1cc(Br)n2nc(SCc3ccc(Br)cc3)nc2n1`, the inhibition in assay [1] is 47%. The IC50 in assay [2] stood at 68 µM.

As to `Cc1cc(-c2ccc3c(c2)OCCO3)n2nc(SCc3ccc(Br)cc3)nc2n1`, the inhibition in assay [1] is 37.4%. Further, in assay [2], the IC50 was 70.9 µM.

In assay [1], `COc1cc(OC)c(-c2cc(C)nc3nc(SCc4ccc(C)cc4)nn23)c(OC)c1` had an inhibition of 11.5%. In assay [2], the half-maximal inhibitory concentration (IC50) is more than 100 µM.

For `COc1cccc(-c2cc(C)nc3nc(SCc4ccc(Br)cc4)nn23)c1`, in assay [1], the inhibition amounted to 58.7%. Besides, in assay [2], the IC50 worked out at 40.3 µM.

As for `COc1cc(OC)c(-c2cc(C)nc3nc(SCc4ccc(Br)cc4)nn23)c(OC)c1`, the inhibition in assay [1] amounted to 69.6%. In addition, in assay [2], the IC50 was found to be 11.9 µM.

Regarding `COc1cc(C2=NC3=NC(C)=C(C(C)=O)C(c4ccc([N+](=O)[O-])cc4)N3N2)cc(OC)c1OC` (configuration not stated), inhibition in the assay on A549 was half-maximal at 1.02 µM (IC50).

In turn, `Cc1cc(-c2ccc(-c3ccccc3)cc2)n2nc(SCc3ccc(Br)cc3)nc2n1` came in with an inhibition in assay [1] of 66.2%. The half-maximal inhibitory concentration (IC50) in assay [2] was determined as 10.5 µM.

On to `CCCSc1nc2nc(C)cc(-c3c(OC)cc(OC)cc3OC)n2n1`, for which, in assay [1], the inhibition is 24.5%. Moreover, the half-inhibitory concentration (IC50) in assay [2] was more than 100 µM.

Take `COc1cc(OC)c(-c2cc(C)nc3nc(SCc4cccc(Cl)c4)nn23)c(OC)c1`: in assay [1], the inhibition worked out at 15.9%. This molecule showed an IC50 in assay [2] of more than 100 µM.

For `Cc1cc(-c2ccc(C(=O)O)cc2)n2nc(SCc3ccc(Br)cc3)nc2n1`, in assay [1], the inhibition was 20.1%. In addition, the half-inhibitory concentration (IC50) in assay [2] was more than 100 µM.

In turn, `COc1ccccc1-c1cc(C)nc2nc(SCc3ccc(Br)cc3)nn12` had an inhibition in assay [1] of 27.2%. The same molecule displayed an IC50 in assay [2] of more than 100 µM.

In assay [1], `C#CCSc1nc2nc(C)cc(-c3c(OC)cc(OC)cc3OC)n2n1` came in with an inhibition of 5.84%. This molecule had a half-inhibitory concentration (IC50) in assay [2] of more than 100 µM.

In the case of `COc1cc(OC)c(-c2cc(C)nc3nc(SCc4cccc(Cl)c4Cl)nn23)c(OC)c1`, in assay [1], the inhibition worked out at 7.29%. For the same molecule, the IC50 in assay [2] was more than 100 µM.

In assay [1], `COc1ccc(-c2cc(C)nc3nc(SCc4ccc(Br)cc4)nn23)cc1` showed an inhibition of 34.6%. This molecule also returned a half-inhibitory concentration (IC50) in assay [2] of 72.4 µM.

Molecule `COc1ccc(N2C(=O)c3ccccc3C2Cc2cc(-c3c(OC)cc(O)cc3OC)n3ncnc3n2)cc1` (configuration not stated) came in with an inhibition in assay [4] of 54%.

In assay [1], `Cc1cc(-c2ccccc2)n2nc(SCc3ccc(Br)cc3)nc2n1` displayed an inhibition of 55.3%. In addition, in assay [2], the concentration for half-maximal inhibition (IC50) was found to be 45.1 µM.
